Test results: US8329918B2, “Selective alpha 2B/2C agonists” (priority 2009, dated 2012)
Read-outs that look alike come from different tables or passages of the source.

Tests used:
Type in all cases: cell-based
[1] = target: T1, alpha2C receptor (Homo sapiens, UniProt P18825); assay: RSAT assay, alpha 2C; details: for (rel. efficacy) Alpha 2C: ratio of maximal effect to standard full agonist brimonidine (UK14304)
T1 construct: expressed in transfected cells; host or cells: NIH-3T3
T1 sequence (P18825 1-462): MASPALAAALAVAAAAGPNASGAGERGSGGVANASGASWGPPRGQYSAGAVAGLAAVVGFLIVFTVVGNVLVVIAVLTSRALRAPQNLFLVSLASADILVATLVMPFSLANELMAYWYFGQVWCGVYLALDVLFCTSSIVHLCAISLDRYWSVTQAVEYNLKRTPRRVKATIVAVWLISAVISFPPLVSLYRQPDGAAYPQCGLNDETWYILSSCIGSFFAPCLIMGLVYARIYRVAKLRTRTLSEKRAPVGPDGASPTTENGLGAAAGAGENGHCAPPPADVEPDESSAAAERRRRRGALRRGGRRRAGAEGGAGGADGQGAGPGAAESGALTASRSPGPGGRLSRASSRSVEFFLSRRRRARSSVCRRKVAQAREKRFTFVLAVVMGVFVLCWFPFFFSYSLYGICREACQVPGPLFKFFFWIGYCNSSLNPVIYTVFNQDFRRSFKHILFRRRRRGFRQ
Method: (§1) Selected presently described compounds were synthesized and tested for alpha adrenergic activity using the Receptor Selection and Amplification Technology (RSAT) assay. Cells expressing each of the alpha-2-adrenergic receptors alone were incubated with various compounds and a receptor-mediated growth response was measured. The compound's activity is expressed as its relative efficacy compared to a standard full agonist.
(§2) The RSAT assay measures a receptor-mediated loss of contact inhibition that results in selective proliferation of receptor-containing cells in a mixed population of confluent cells. The increase in cell number is assessed with an appropriate transfected marker gene such as β-galactosidase, the activity of which can be easily measured in a 96-well format. Receptors that activate the G protein, Gq, elicit this response. Alpha2 receptors, which normally couple to Gi, activate the RSAT response when coexpressed with a hybrid Gq protein that has a Gi receptor recognition domain, called Gq/i5.
(§3) NIH-3T3 cells are plated at a density of 2×10^6 cells in 15 cm dishes and maintained in Dulbecco's modified Eagle's medium supplemented with 10% calf serum. One day later, cells are cotransfected by calcium phosphate precipitation with mammalian expression plasmids encoding p-SV-β-galactosidase (5-10 μg), receptor (1-2 μg) and G protein (1-2 μg). 40 μg salmon sperm DNA may also be included in the transfection mixture. Fresh media is added on the following day and 1-2 days later, cells are harvested and frozen in 50 assay aliquots. Cells are thawed and […] added to […] aliquots of various concentrations of drugs in triplicate in 96-well dishes. Incubations continue 72-96 hr at 37° C. After washing with phosphatebuffered saline, β-galactosidase enzyme activity is determined by adding 200 μl of the chromogenic substrate (consisting of 3.5 mM o-nitrophenyl-β-D-galactopyranoside and 0.5% nonidet P-40 in phosphate buffered saline), incubating overnight at 30° C. and measuring optical density at 420 nm. The absorbance is a measure of enzyme activity, which depends on cell number and reflects a receptor-mediated cell proliferation. The EC50 and maximal effect of each drug at each alpha2 receptor is determined. The efficacy or intrinsic activity is calculated as a ratio of the maximal effect of the drug to the maximal effect of a standard full agonist for each receptor subtype. Brimonidine, also called UK14304, is used as the standard agonist for the alpha2A, alpha2B, and alpha2C receptors.
(§4) The compounds activity is expressed as its relative efficacy compared to a standard full agonist.

[2] = target: T2, alpha2B receptor (Homo sapiens, UniProt P18089); assay: RSAT assay, alpha 2B; details: for (rel. efficacy) Alpha 2B: ratio of maximal effect to standard full agonist brimonidine (UK14304)
T2 construct: expressed in transfected cells; host or cells: NIH-3T3
T2 sequence (P18089 1-450): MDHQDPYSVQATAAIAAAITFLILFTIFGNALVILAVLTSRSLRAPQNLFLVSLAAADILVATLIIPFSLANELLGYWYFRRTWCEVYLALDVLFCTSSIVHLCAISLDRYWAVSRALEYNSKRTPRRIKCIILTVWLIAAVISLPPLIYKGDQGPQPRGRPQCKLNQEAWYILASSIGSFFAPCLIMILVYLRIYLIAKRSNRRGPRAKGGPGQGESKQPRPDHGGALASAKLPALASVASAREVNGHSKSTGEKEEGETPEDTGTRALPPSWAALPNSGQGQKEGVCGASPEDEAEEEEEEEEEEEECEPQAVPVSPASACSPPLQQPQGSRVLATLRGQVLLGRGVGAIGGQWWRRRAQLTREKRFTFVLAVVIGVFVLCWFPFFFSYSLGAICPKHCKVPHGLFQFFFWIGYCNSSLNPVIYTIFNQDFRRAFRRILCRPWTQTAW
Method: as §1, §2, §3, §4

[3] = target: T3, alpha2A receptor (Homo sapiens, UniProt P08913); assay: RSAT assay, alpha 2A; details: for (rel. efficacy) Alpha 2A: ratio of maximal effect to standard full agonist brimonidine (UK14304)
T3 sequence (P08913 1-465): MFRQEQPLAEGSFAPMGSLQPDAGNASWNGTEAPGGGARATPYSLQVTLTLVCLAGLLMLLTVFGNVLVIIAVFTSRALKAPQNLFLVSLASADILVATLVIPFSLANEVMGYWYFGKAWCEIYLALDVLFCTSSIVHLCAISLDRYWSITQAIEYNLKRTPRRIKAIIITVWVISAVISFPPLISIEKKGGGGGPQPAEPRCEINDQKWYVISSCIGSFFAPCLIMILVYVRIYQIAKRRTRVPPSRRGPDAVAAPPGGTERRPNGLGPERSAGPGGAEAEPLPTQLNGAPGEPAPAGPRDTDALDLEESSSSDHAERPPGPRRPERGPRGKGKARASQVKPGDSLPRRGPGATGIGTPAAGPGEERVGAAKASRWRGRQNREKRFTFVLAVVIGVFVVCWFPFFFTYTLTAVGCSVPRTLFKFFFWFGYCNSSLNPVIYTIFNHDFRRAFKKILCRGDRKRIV
Method: as §1, §2, §3, §4

[4] = RSAT, NIH-3T3 cells, NA = not active, read-out: EC50 (nM) Alpha 2C
[5] = RSAT, NIH-3T3 cells, NA = not active, read-out: EC50 (nM) Alpha 2B

| Structure (SMILES) | EC50 [1] [nM] | (rel. efficacy) Alpha 2C ([1]; RSAT) | EC50 [2] [nM] | (rel. efficacy) Alpha 2B ([2]; RSAT) | EC50 [3] [nM] | (rel. efficacy) Alpha 2A ([3]; RSAT) | EC50 [1, 4] [nM] | EC50 ([3]; RSAT, NIH-3T3 cells, NA = not active, read-out: EC50 (nM) Alpha 2A) [nM] | EC50 [2, 5] [nM] |
| --- | --- | --- | --- | --- | --- | --- | --- | --- | --- |
| Fc1c(Cl)cccc1CNC1=NCCS1 | 535 | 0.7 | 107 | 1.01 | – | – | – | – | – |
| Fc1c(CNC2=NCCS2)cccc1C(F)(F)F | 1430 | 0.73 | 184 | 0.99 | – | – | – | – | – |
| Brc1ccccc1CNC1=NCCS1 | 190 | 0.77 | 29 | 0.84 | 2780 | 0.37 | – | – | – |
| Clc1cccc(CNC2=NCCS2)c1 | – | 0.48 | 42 | 0.99 | – | – | 504 | – | – |
| Brc1cccc(CNC2=NCCS2)c1 | 459 | 0.5 | 75 | 0.84 | – | – | – | – | – |
| Fc1c(Br)cccc1CNC1=NCCS1 | 182 | 0.64 | 34 | 0.98 | 1380 | 0.44 | – | – | – |
| COc1ccc(Cl)cc1CNC1=NCCS1 | – | 0.55 | 77 | 0.85 | – | 0.38 | 465 | 2250 | – |
| Fc1ccc(Br)c(CNC2=NCCS2)c1 | 452 | 0.67 | 73 | 0.97 | – | – | – | – | – |
| Fc1ccc(Br)cc1CNC1=NCCS1 | – | 0.64 | – | 0.85 | – | – | 2060 | – | 280 |
| Clc1cccc(CNC2=NCCS2)c1Cl | 252 | 0.68 | 28 | 0.94 | – | – | – | – | – |
| FC(F)(F)c1cccc(CNC2=NCCS2)c1Cl | – | 0.46 | – | 1.08 | – | – | 854 | – | 101 |
| Cc1cc(Br)c(F)c(CNC2=NCCS2)c1 | – | 0.62 | – | 1.04 | – | – | 803 | – | 168 |
| Cc1cc(Cl)cc(CNC2=NCCS2)c1F | 1250 | 0.51 | 351 | 0.96 | – | – | – | – | – |
| Clc1ccccc1CNC1=NCCS1 | – | 0.66 | 50 | 0.85 | – | – | 699 | – | – |
| Clc1ccc(Br)cc1CNC1=NCCS1 | – | 0.56 | – | 0.9 | – | – | 1330 | – | 296 |
| Brc1ccccc1CNC1=NCCO1 | 85 | 0.85 | 5 | 1.09 | – | – | – | – | – |
| Clc1cccc(CNC2=NCCO2)c1Cl | 92 | 0.91 | 5 | 1.05 | – | – | – | – | – |
| Clc1ccccc1CNC1=NCCO1 | 42 | 0.83 | 3.3 | 1.02 | – | – | – | – | – |
| Clc1ccc(Br)cc1CNC1=NCCO1 | 81 | 0.71 | 20 | 0.98 | – | – | – | – | – |

| Structure (SMILES) | EC50 [1] [nM] | (rel. efficacy) Alpha 2C ([1]; RSAT) | EC50 [2] [nM] | (rel. efficacy) Alpha 2B ([2]; RSAT) | EC50 [3] [nM] | (rel. efficacy) Alpha 2A ([3]; RSAT) | EC50 [1, 4] [nM] | EC50 ([3]; RSAT, NIH-3T3 cells, NA = not active, read-out: EC50 (nM) Alpha 2A) [nM] | EC50 [2, 5] [nM] |
| --- | --- | --- | --- | --- | --- | --- | --- | --- | --- |
| Fc1ccc(Br)c(CNC2=NCCO2)c1 | 29 | 0.71 | 4 | 1.05 | – | – | – | – | – |
| Brc1cccc(CNC2=NCCO2)c1 | 83 | 0.59 | 12 | 1.0 | – | – | – | – | – |
| Fc1ccc(Br)cc1CNC1=NCCO1 | – | 0.63 | 18 | 0.89 | – | – | 186 | – | – |
| FC(F)(F)c1cccc(CNC2=NCCO2)c1Cl | – | 0.81 | 5 | 0.96 | – | – | 189 | – | – |
| Fc1ccc(Cl)c(F)c1CNC1=NCCO1 | – | 0.52 | 57 | 0.93 | – | – | 356 | – | – |
| COc1c(Cl)cccc1CNC1=NCCS1 | 99 | 0.73 | 22 | 1.08 | 701 | 0.38 | – | – | – |
| COc1c(C)cccc1CNC1=NCCS1 | 187 | 0.97 | 27 | 0.98 | 481 | 0.57 | – | – | – |
| Cc1c(Cl)cccc1CNC1=NCCS1 | 401 | 0.72 | 40 | 0.99 | – | – | – | – | – |
| Clc1c(Br)cccc1CNC1=NCCS1 | – | 0.98 | 18 | 1.01 | > 3000 | 0.4 | 198 | – | – |
| Clc1cccc(CNC2=NCCS2)c1Br | – | 0.68 | 40 | 0.85 | – | – | 303 | – | – |
| Cc1cccc(CNC2=NCCO2)c1C | 11 | 0.83 | 2 | 1.09 | – | – | – | – | – |
| FC(F)Oc1ccccc1CNC1=NCCO1 | 13 | 0.74 | 34 | 0.83 | – | – | – | – | – |
| FC(F)(F)c1ccccc1CNC1=NCCO1 | 21 | 0.8 | 31 | 0.97 | – | – | – | – | – |
| FC(F)Oc1cccc(CNC2=NCCO2)c1 | 60 | 0.49 | – | 0.6 | – | – | – | – | 217 |
| Fc1cccc(CNC2=NCCO2)c1 | 17 | 0.59 | 39 | 0.82 | – | – | – | – | – |
| COc1ccccc1CNC1=NCCS1 [drawing 16] | 1550 | 0.74 | – | – | – | – | – | – | – |
| COc1ccccc1CNC1=NCCO1 [drawing 17] | – | 0.53 | 13.4 | 1.09 | – | – | 181 | – | – |
| Fc1c(Cl)cccc1CNC1=NCCO1 [drawing 19] | 22 | 0.85 | 10 | 1.09 | – | – | – | – | – |
